Tests used:
[1] = tested on: tumor-neutrophil co-culture; assay: Tumor lysis with phagocytosis or ROS inhibitor; format: cell-based
Description: FIG. 16A is a volcano map of bulk RNA-Seq analysis of U87MG cells under indicated treatments. FIGS. 16B and 16C show tumor lysis measurements of the indicated groups treated with 5 μM cytochalasin D (CytoD) or 5 mM N-acetylcysteine (NAC), respectively.
RNA sequencing (RNA-seq) analysis on tumor cells was performed to elucidate potential molecular mechanism underlying enhanced anti-tumor cytolysis of neutrophils by CAR expression and R—SiO2-TPZ NP. […] To further understand enhanced anti-tumor activities of R—SiO2-TPZ-loaded CAR-neutrophils, a phagocytosis inhibitor cytochalasin D and a reactive oxygen species (ROS) inhibitor N-acetyl-cysteine (NAC) were applied to the tumor-neutrophil co-culture.

[2] = tested on: U87MG tumor spheroids; assay: 3D tumor spheroid model; format: cell-based, human; details: drug delivered by CAR-neutrophils@R—SiO2 NPs
Description: A three-dimensional (3D) tumor spheroid model was then employed to evaluate the tumor-penetration ability of R—SiO2-TPZ NP-loaded CAR-neutrophils (FIG. 6G). 3D tumor spheroids were generated by the hanging-drop method. Briefly, U87MG cells were suspended in minimum essential medium (MEM) medium with 10% FBS and 0.3% methylcellulose at 2×10^6 cells/mL and deposited onto an inverted lid of 96-well plate as an individual drop using a 20 μL pipettor. The cover lid was then placed back onto the PBS-filled bottom chamber, and the whole plate was incubated at 37° C. and 5% CO2. The hanging drops were monitored daily until cell aggregates were formed in 5-7 days. Each cell aggregate was transferred to a single well of a 24-well plate for subsequent experiments.
To assess the tumor penetration capability of CLTX-CAR neutrophils, 2×10^5 neutrophils/well were added to the wells of 24-well plate and incubated with tumor spheroids. After co-incubation for 24 hours, tumor spheroids were fixed and stained for CD45 and DAPI. For cytotoxicity analysis, both live/dead cell staining and the CytoTox-Glo™ Cytotoxicity Assay kit (Promega Corporation, Madison, WI) were employed. The CytoTox-Glo™ Cytotoxicity Assay was quantified by the SpectraMax iD3 microplate reader (Molecular Devices, Sunnyvale, CA).

Structure (SMILES): C=C1[C@@H](C)[C@H]2[C@H](Cc3ccccc3)NC(=O)[C@]23[C@H](OC(C)=O)/C=C/[C@@](C)(O)C(=O)[C@@H](C)C/C=C/[C@H]3[C@@H]1O [cytochalasin D]
- cytolysis of tumor cells by CAR-neutrophils in presence of inhibitor ([1]; 5 μM): significantly reduced

Structure (SMILES): CC(=O)N[C@@H](CS)C(=O)O [NAC, N-acetyl-cysteine]
- cytolysis of tumor cells by CAR-neutrophils in presence of inhibitor ([1]; 5 mM): significantly reduced

Structure (SMILES): Nc1nc2cc(CC[C@H]3C[C@@H](n4ccc5c(N)ncnc54)[C@H](O)[C@@H]3O)ccc2cc1Br [JNJ64619187]
- killing of GBM cells in 3D tumor models [2]: efficiently kill GBM cells
